The source of these data is patent publication US10344004B2, “Inhibitor of the mutated isocitrate dehydrogenase IDH1 R132H” (Bayer Pharma Aktiengesellschaft, priority 2015, dated 2019).

The nature of this series: Relative oral bioavailability (FRel experiment) in Wistar rats. In kind it is in vivo. As to the method:
The relative bioavailability was determined by studies in Wistar rats.
Compound A was firstly administered orally in the form of a solution. For this purpose, the active ingredient was dissolved in a mixture of 80% polyethylene glycol having an average molecular weight of 400 (PEG400) and 20% water. The active ingredient solution is the reference point for determining the relative bioavailability (formulation A1).
Compound A was also administered orally in the form of a tylose suspension (formulation A2).
Compound B was likewise administered orally in the form of a tylose suspension (formulation B).
To prepare a 0.5% aqueous tylose suspension (w/v), tylose was stirred and swelled for about 12 hours in pure water, whereupon a viscous mixture was formed. Compound A and compound B were each ground into the viscous mixture, whereupon the corresponding tylose suspensions were formed (formulation A2 and formulation B).
FIGS. 1a, 1b and 1c show the plasma concentrations of the active ingredient 3-(2-{[4-(trifluoromethoxy)phenyl]amino}-1-[(1R,5R)-3,3,5-trimethylcyclohexyl]-1H-benzimidazol-5-yl)propanoic acid (active ingredient API) after oral administration of compound A in the form of a solution (formulation A1, FIG. 1a), after oral administration of compound A in the form of a suspension (formulation A2, FIG. 1b) and after oral administration of compound B in the form of a suspension (formulation B, FIG. 1c).
For formulation A1, 5 mL/kg body weight were administered. This corresponded to an amount of active ingredient API of 10 mg/kg.
For formulation A2, 5 mL/kg body weight were administered. This corresponded to an amount of active ingredient API of 10 mg/kg.
For formulation B, 2 mL/kg body weight were administered. […]
Plasma concentrations were determined by collecting about 0.4 mL of blood in each case via an indwelling venous catheter. […] The plasma samples were analyzed by LC/MS/MS with respect to the active ingredient 3-(2-{[4-(trifluoromethoxy)phenyl]amino}-1-[(1R,5R)-3,3,5-trimethylcyclohexyl]-1H-benzimidazol-5-yl)propanoic acid.

`C[C@H]1C[C@@H](n2c(Nc3ccc(OC(F)(F)F)cc3)nc3cc(CCC(=O)O)ccc32)CC(C)(C)C1` [Compound A, 3-(2-{[4-(trifluoromethoxy)phenyl]amino}-1-[(1R,5R)-3,3,5-trimethylcyclohexyl]-1H-benzimidazol-5-yl)propanoic acid]: the bioavailability (usually dose-corrected exposure relative to a reference, in per cent) (rat, plasma, tylose suspension (formulation A2), 10 mg/kg API, relative to PEG400/water solution (formulation A1)) stood at 25%.
As for “(2E)-but-2-enedioic acid-3-(2-{[4-(trifluoromethoxy)phenyl]amino}-1-[(1R,5R)-3,3,5-trimethylcyclohexyl]-1H-benzimidazol-5-yl)propanoic acid (1:4) [Compound B]”, the “bioavailability in the FRel experiment” value (tylose suspension (formulation B), 10.6 mg/kg API, relative to PEG400/water solution of compound A (formulation A1)) is given as 110%. Moreover, the “bioavailability compared with the pure free acid” value (tylose suspensions, comparison in words) is reported as “distinctly higher bioavailability”.
